Assay results taken from patent US20020026053A1, “Novel 3-(substituted) -2- indolinones compounds and use thereof as inhibitors of protein kinase activity” (priority 1997, published 2002).
Where two headings read alike, the source gives them in different places.

Experiments:
FLK-1 receptor = assay: FLK-1 Assay (cellular/catalytic ELISA, VEGF-stimulated phosphotyrosine); format: cell-based; parameters: concentration or dose not given beside the values
Procedure, shortened: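 NIH3T3 C7#3 cells engineered to express Flk-1 were serum-starved overnight (0.1% FBS), then exposed to compound for 2 h at 37 °C (final dilution 1:200, 0.5% DMSO) before VEGF stimulation. Lysates captured on anti-FLK-1 antiserum plates; phosphotyrosine detected by UB40 antibody/POD-ABTS ELISA versus untreated controls.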

PDGF-R = PDGF-R Assay (cellular ELISA, U1242 cells); format: cell-based; parameters: concentration or dose not given beside the values
Procedure, shortened: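 U1242 cells seeded in 0.5% serum, serum-starved, then exposed to compound for 2 hr at 37°C before 5–10 min ligand stimulation and lysis in HNTG. Lysate captured on receptor-antibody-coated plates; phosphotyrosine detected with polyclonal anti-pTyr, goat anti-rabbit IgG and ABTS/H2O2, A410 (ref 630 nm), versus untreated cells.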

Row | Structure (SMILES) | Flk Kinase % Inhibition (P.110) (FLK-1 receptor) [%] | PDGF Kinase % Inhibition (P.119) (PDGF-R) [%] | Flk Kinase % Inhibition (P.110) (FLK-1 receptor; protocol P.110) [%] | PDGF Kinase % Inhibition (P.119) (PDGF-R; protocol P.119) [%]
1 | Cc1c(Br)cc(Br)c2c1C(=Cc1csc([N+](=O)[O-])c1)C(=O)N2 [10722/H09] | 3.3 | 17.5 |  | 
2 | CCCCN(CCCC)c1ccc(C=C2C(=O)Nc3c(Br)cc(Br)c(C)c32)cc1 [10722/H10] | −14.1 | 7.2 |  | 
3 | Cc1c(Br)cc(Br)c2c1C(=Cc1ccc(C(F)(F)F)cc1)C(=O)N2 [10722/H11] | −3.3 | 15.7 |  | 
4 | Cc1c(Br)cc(Br)c2c1C(=Cc1ccc(O)c(O)c1O)C(=O)N2 [10723/H02] | 9.0 | 20.7 |  | 
5 | COc1cccc(C=C2C(=O)Nc3c(Br)cc(Br)c(C)c32)c1O [10723/H03] | 6.1 | −30.6 |  | 
6 | Cc1c(Br)cc(Br)c2c1C(=Cc1cc(O)c(O)c(Br)c1)C(=O)N2 [10723/H04] | −20.2 | 53.3 |  | 
7 | CC(=O)Oc1ccc(C=C2C(=O)Nc3c(Br)cc(Br)c(C)c32)cc1OC(C)=O [10723/H05] | −2.5 | −12.6 |  | 
8 | Cc1cc(C=C2C(=O)Nc3c(Br)cc(Br)c(C)c32)ccc1O [10723/H06] | 10.6 | −17.4 |  | 
9 | Cc1c(Br)cc(Br)c2c1C(=Cc1ccccc1Br)C(=O)N2 [10723/H07] | 5.0 | −20.9 |  | 
10 | Cc1c(Br)cc(Br)c2c1C(=Cc1ccc(O)cc1O)C(=O)N2 [10723/H08] | −4.2 | 4.1 |  | 
11 | COc1ccc(C=C2C(=O)Nc3c(Br)cc(Br)c(C)c32)c(O)c1 [10723/H09] | −0.4 | 15.9 |  | 
12 | Cc1c(Br)cc(Br)c2c1C(=Cc1cccc(Br)c1)C(=O)N2 [10723/H10] | −13.4 | −22.3 |  | 
13 | Cc1c(Br)cc(Br)c2c1C(=Cc1cc(C(C)(C)C)cc(C(C)(C)C)c1O)C(=O)N2 [10723/H11] | −5.1 | 29.7 |  | 
14 | Cc1c(Br)cc(Br)c2c1C(=Cc1ccc(N(C)C)c3ccccc13)C(=O)N2 [10724/H02] | 11.5 | 2.2 |  | 
15 | Cc1c(Br)cc(Br)c2c1C(=Cc1ccc(O)c([N+](=O)[O-])c1)C(=O)N2 [10724/H03] | 1.8 | −7.6 |  | 
16 | Cc1c(Br)cc(Br)c2c1C(=Cc1ccc([N+](=O)[O-])c(O)c1)C(=O)N2 [10724/H04] | −3.0 | −13.1 |  | 
17 | Cc1c(Br)cc(Br)c2c1C(=Cc1cc3c4c(c1O)CCCN4CCC3)C(=O)N2 [10724/H05] | −0.4 | −19.4 |  | 
18 | Cc1c(Br)cc(Br)c2c1C(=Cc1cc(C(C)C)c(O)c(C(C)C)c1)C(=O)N2 [10724/H06] | −5.1 | −20.8 |  | 
19 | Cc1c(Br)cc(Br)c2c1C(=Cc1cc3ccccc3o1)C(=O)N2 [10724/H07] | 1.1 | −39.6 |  | 
20 | COc1cc(O)c(C=C2C(=O)Nc3c(Br)cc(Br)c(C)c32)c(OC)c1 [10724/H08] | 13.1 | −9.0 |  | 
21 | Cc1c(Br)cc(Br)c2c1C(=Cc1cccn1-c1ccc(Cl)cc1)C(=O)N2 [10724/H09] | 1.3 | −13.1 |  | 
22 | CCc1ccc(C=C2C(=O)Nc3c(Br)cc(Br)c(C)c32)o1 [10724/H10] | 5.8 | −2.7 |  | 
23 | Cc1c(Br)cc(Br)c2c1C(=Cc1sc3scc(C)c3c1C)C(=O)N2 [10724/H11] | 8.6 | −31.2 |  | 
24 | Cc1c(Br)cc(Br)c2c1C(=Cc1sccc1Br)C(=O)N2 [10725/H02] | −7.6 | −19.9 |  | 
25 | COc1ccc(Br)c(C=C2C(=O)Nc3c(Br)cc(Br)c(C)c32)c1O [10725/H03] | −5.8 | −12.8 |  | 
26 | Cc1ccc(C=C2C(=O)Nc3c(Br)cc(Br)c(C)c32)o1 [10725/H04] | −5.1 | −4.1 |  | 

Row | Structure (SMILES) | Flk Kinase % Inhibition (P.110) (FLK-1 receptor) [%] | PDGF Kinase % Inhibition (P.119) (PDGF-R) [%] | Flk Kinase % Inhibition (P.110) (FLK-1 receptor; protocol P.110) [%] | PDGF Kinase % Inhibition (P.119) (PDGF-R; protocol P.119) [%]
27 | Cc1cc(C=C2C(=O)Nc3c(Br)cc(Br)c(C)c32)[nH]n1 [10725/H05] | 21.6 | 14.6 |  | 
28 | COc1cc(C)cc(O)c1C=C1C(=O)Nc2c(Br)cc(Br)c(C)c21 [10725/H06] | 16.1 | 6.9 |  | 
29 | Cc1c(Br)cc(Br)c2c1C(=Cc1ccc(N3CCN(C=O)CC3)cc1)C(=O)N2 [10725/H07] | 8.6 | 2.6 |  | 
30 | Cc1c(Br)cc(Br)c2c1C(=Cc1ccc(N3CCOCC3)cc1)C(=O)N2 [10725/H08] | 17.2 | 13.6 |  | 
31 | COC(=O)Cc1c(Cl)[nH]c(C=C2C(=O)Nc3c(Br)cc(Br)c(C)c32)c1C(=O)OC [10725/H09] | −6.1 | 9.3 |  | 
32 | Cc1c(Br)cc(Br)c2c1C(=Cc1c(Br)cnn1-c1ccc(Cl)cc1)C(=O)N2 [10725/H10] | 7.8 | 12.2 |  | 
33 | Cc1c(Br)cc(Br)c2c1C(=Cc1c[nH]cn1)C(=O)N2 [10725/H11] | −40.8 | 16.5 |  | 
34 | Cc1c(Br)cc(Br)c2c1C(=Cc1ccccc1[N+](=O)[O-])C(=O)N2 [10726/H02] | −8.5 | −8.3 |  | 
35 | CCOC(=O)c1[nH]c(C=C2C(=O)Nc3c(Br)cc(Br)c(C)c32)c(C(=O)OC)c1C [10726/H03] | 0.4 | −17.8 |  | 
36 | Cc1cc(C=C2C(=O)Nc3c(Br)cc(Br)c(C)c32)cc(C(C)(C)C)c1O [10726/H04] | 2.5 | 13.2 |  | 
37 | COc1cccc(C=C2C(=O)Nc3ccc(S(=O)(=O)N4CCOCC4)cc32)c1 [10736/F10] | 7.7 | 11.0 |  | 
38 | O=C1Nc2ccc(S(=O)(=O)N3CCOCC3)cc2C1=Cc1ccccc1Cl [10736/F11] | 3.7 | 4.4 |  | 
39 | O=C1Nc2ccc(CCCl)cc2C1=Cc1ccc(Cl)cc1 [10736/G02] | −7.2 | −5.2 |  | 
40 | O=C1Nc2ccc(CCCl)cc2C1=Cc1ccccc1C(F)(F)F [10736/G03] | 4.5 | 1.4 |  | 
41 | Cc1cccc(C=C2C(=O)Nc3ccc(CCCl)cc32)c1 [10736/G04] | 13.0 | −8.3 |  | 
42 | O=C1Nc2ccc(CCCl)cc2C1=Cc1cccc(F)c1 [10736/G07] |  |  | 9.4 | −14.8
43 | O=C1Nc2ccc(CCCl)cc2C1=Cc1ccccc1F [10736/G08] |  |  | −0.1 | −9.2
44 | CCc1ccc(C=C2C(=O)Nc3ccc(CCCl)cc32)cc1 [10736/G09] |  |  | −2.1 | −3.5
45 | COc1cccc(C=C2C(=O)Nc3ccc(CCCl)cc32)c1 [10736/G10] |  |  | 6.0 | −7.4
46 | O=C1Nc2ccc(CCCl)cc2C1=Cc1ccccc1Cl [10736/G11] |  |  | 0.0 | −1.7
47 | Cc1c(Br)cc(Br)c2c1C(=Cc1ccc(Cl)cc1)C(=O)N2 [10736/H02] |  |  | 6.1 | −6.1
48 | Cc1c(Br)cc(Br)c2c1C(=Cc1ccccc1C(F)(F)F)C(=O)N2 [10736/H03] |  |  | 15.1 | 2.2
49 | Cc1cccc(C=C2C(=O)Nc3c(Br)cc(Br)c(C)c32)c1 [10736/H04] |  |  | 14.0 | −10.9
50 | Cc1ccc(C=C2C(=O)Nc3c(Br)cc(Br)c(C)c32)cc1 [10736/H05] |  |  | 16.3 | −10.0
51 | Cc1c(Br)cc(Br)c2c1C(=Cc1cccc(Cl)c1)C(=O)N2 [10736/H06] |  |  | 15.5 | 9.3
